{"source": "ChEMBL document CHEMBL4622932", "about": "“Design, synthesis and biological evaluation of new Myo-inositol derivatives as potential RAS inhibitors” (Bioorg Med Chem Lett, 2020)", "key": {"[1]": {"biological_target": "GTPase KRas (Homo sapiens) (UniProt P01116)", "assay": "Inhibition of KRAS in human MCF7 cells assessed as reduction in MEK1/2 9G3 protein level at 35 uM measured after 24 hrs by Western blot analysis relative to control", "assay_type": "cell-based"}, "MDA-MB-231 [2]": {"test_system": "MDA-MB-231", "assay": "Cell cycle arrest in human MDA-MB-231 cells assessed as accumulation at G1 phase at 25 uM measured after 48 hrs by propidium iodide/RNase staining based flow cytometry (reference value: 74.56 %)", "assay_type": "functional"}, "MDA-MB-231 [3]": {"test_system": "MDA-MB-231", "assay": "Induction of apoptosis in human MDA-MB-231 cells assessed as early apoptotic cells at 25 uM measured after 48 hrs by annexinV-FITC/propidium iodide staining based flow cytometry (reference value: 0.69 %)", "assay_type": "functional"}, "MDA-MB-231 [4]": {"test_system": "MDA-MB-231", "assay": "Induction of apoptosis in human MDA-MB-231 cells assessed as late apoptotic cells at 15 uM measured after 48 hrs by annexinV-FITC/propidium iodide staining based flow cytometry (reference value: 0 %)", "assay_type": "functional"}, "MCF7 [5]": {"test_system": "MCF7", "assay": "Induction of apoptosis in human MCF7 cells assessed as necrotic cells at 25 uM measured after 48 hrs by annexinV-FITC/propidium iodide staining based flow cytometry (reference value: 0.08 %)", "assay_type": "functional"}, "[6]": {"biological_target": "GTPase KRas (Homo sapiens) (UniProt P01116)", "assay": "Inhibition of KRAS in human MCF7 cells assessed as reduction in phosphorylated ERK1/2 at Thr185/Tyr187 residues protein level at 15 uM measured after 24 hrs by Western blot analysis relative to control", "assay_type": "cell-based"}, "[7]": {"biological_target": "GTPase KRas (Homo sapiens) (UniProt P01116)", "assay": "Inhibition of KRAS in human MDA-MB-231 cells assessed as reduction in MEK1/2 9G3 protein level at 35 uM measured after 24 hrs by Western blot analysis relative to control", "assay_type": "cell-based"}, "[8]": {"biological_target": "GTPase KRas (Homo sapiens) (UniProt P01116)", "assay": "Inhibition of KRAS in human MCF7 cells assessed as reduction in ERK1/2 137F5 protein level at 15 uM measured after 24 hrs by Western blot analysis relative to control", "assay_type": "cell-based"}, "[9]": {"biological_target": "GTPase KRas (Homo sapiens) (UniProt P01116)", "assay": "Inhibition of KRAS in human MCF7 cells assessed as reduction in ERK1/2 137F5 protein level at 25 uM measured after 24 hrs by Western blot analysis relative to control", "assay_type": "cell-based"}, "MDA-MB-231 [10]": {"test_system": "MDA-MB-231", "assay": "Induction of apoptosis in human MDA-MB-231 cells assessed as early apoptotic cells at 15 uM measured after 48 hrs by annexinV-FITC/propidium iodide staining based flow cytometry (reference value: 0.69 %)", "assay_type": "functional"}, "MDA-MB-231 [11]": {"test_system": "MDA-MB-231", "assay": "Antiproliferative activity against human MDA-MB-231 cells reduction in cell viability measured after 48 hrs by MTT assay", "assay_type": "functional, cell-based"}, "MDA-MB-231 [12]": {"test_system": "MDA-MB-231", "assay": "Induction of apoptosis in human MDA-MB-231 cells assessed as live cells at 15 uM measured after 48 hrs by annexinV-FITC/propidium iodide staining based flow cytometry (reference value: 99 %)", "assay_type": "functional"}, "MDA-MB-231 [13]": {"test_system": "MDA-MB-231", "assay": "Cell cycle arrest in human MDA-MB-231 cells assessed as accumulation at G2 phase at 15 uM measured after 48 hrs by propidium iodide/RNase staining based flow cytometry (reference value: 3.35 %)", "assay_type": "functional"}, "MCF7 [14]": {"test_system": "MCF7", "assay": "Induction of apoptosis in human MCF7 cells assessed as early apoptotic cells at 15 uM measured after 48 hrs by annexinV-FITC/propidium iodide staining based flow cytometry (reference value: 0.04 %)", "assay_type": "functional"}, "[15]": {"biological_target": "GTPase KRas (Homo sapiens) (UniProt P01116)", "assay": "Inhibition of KRAS in human MCF7 cells assessed as reduction in Pan RAS protein level at 15 uM measured after 24 hrs by Western blot analysis relative to control", "assay_type": "cell-based"}, "[16]": {"biological_target": "GTPase KRas (Homo sapiens) (UniProt P01116)", "assay": "Inhibition of KRAS in human MDA-MB-231 cells assessed as reduction in phosphorylated MEK1/2 at Ser217/221 residues protein level at 35 uM measured after 24 hrs by Western blot analysis relative to control", "assay_type": "cell-based"}, "MDA-MB-231 [17]": {"test_system": "MDA-MB-231", "assay": "Induction of apoptosis in human MDA-MB-231 cells assessed as necrotic cells at 25 uM measured after 48 hrs by annexinV-FITC/propidium iodide staining based flow cytometry (reference value: 0.31 %)", "assay_type": "functional"}, "[18]": {"biological_target": "GTPase KRas (Homo sapiens) (UniProt P01116)", "assay": "Inhibition of KRAS in human MDA-MB-231 cells assessed as reduction in phosphorylated MEK1/2 at Ser217/221 residues protein level at 15 uM measured after 24 hrs by Western blot analysis relative to control", "assay_type": "cell-based"}, "[19]": {"biological_target": "GTPase KRas (Homo sapiens) (UniProt P01116)", "assay": "Inhibition of KRAS in human MDA-MB-231 cells assessed as reduction in phosphorylated ERK1/2 at Thr185/Tyr187 residues protein level at 35 uM measured after 24 hrs by Western blot analysis relative to control", "assay_type": "cell-based"}, "[20]": {"biological_target": "GTPase KRas (Homo sapiens) (UniProt P01116)", "assay": "Inhibition of KRAS in human MDA-MB-231 cells assessed as reduction in ERK1/2 137F5 protein level at 35 uM measured after 24 hrs by Western blot analysis relative to control", "assay_type": "cell-based"}, "[21]": {"biological_target": "GTPase KRas (Homo sapiens) (UniProt P01116)", "assay": "Inhibition of KRAS in human MCF7 cells assessed as reduction in phosphorylated RAF-1 E1 protein level at 35 uM measured after 24 hrs by Western blot analysis relative to control", "assay_type": "cell-based"}, "[22]": {"biological_target": "GTPase KRas (Homo sapiens) (UniProt P01116)", "assay": "Inhibition of KRAS in human MDA-MB-231 cells assessed as reduction in Pan RAS protein level at 25 uM measured after 24 hrs by Western blot analysis relative to control", "assay_type": "cell-based"}, "[23]": {"biological_target": "GTPase KRas (Homo sapiens) (UniProt P01116)", "assay": "Inhibition of KRAS in human MDA-MB-231 cells assessed as reduction in MEK1/2 9G3 protein level at 15 uM measured after 24 hrs by Western blot analysis relative to control", "assay_type": "cell-based"}, "[24]": {"biological_target": "GTPase KRas (Homo sapiens) (UniProt P01116)", "assay": "Inhibition of KRAS in human MDA-MB-231 cells assessed as reduction in phosphorylation of ERK measured after 24 hrs by Western blot analysis", "assay_type": "cell-based"}, "[25]": {"biological_target": "GTPase KRas (Homo sapiens) (UniProt P01116)", "assay": "Inhibition of KRAS in human MCF7 cells assessed as reduction in Pan RAS protein level at 25 uM measured after 24 hrs by Western blot analysis relative to control", "assay_type": "cell-based"}, "MCF7 [26]": {"test_system": "MCF7", "assay": "Induction of apoptosis in human MCF7 cells assessed as necrotic cells at 15 uM measured after 48 hrs by annexinV-FITC/propidium iodide staining based flow cytometry (reference value: 0.08 %)", "assay_type": "functional"}, "[27]": {"biological_target": "GTPase KRas (Homo sapiens) (UniProt P01116)", "assay": "Inhibition of KRAS in human MDA-MB-231 cells assessed as reduction in ERK1/2 137F5 protein level at 25 uM measured after 24 hrs by Western blot analysis relative to control", "assay_type": "cell-based"}, "[28]": {"biological_target": "GTPase KRas (Homo sapiens) (UniProt P01116)", "assay": "Inhibition of KRAS in human MDA-MB-231 cells assessed as reduction in MEK1/2 9G3 protein level at 25 uM measured after 24 hrs by Western blot analysis relative to control", "assay_type": "cell-based"}, "[29]": {"biological_target": "GTPase KRas (Homo sapiens) (UniProt P01116)", "assay": "Inhibition of KRAS in human MDA-MB-231 cells assessed as reduction in phosphorylated ERK1/2 at Thr185/Tyr187 residues protein level at 15 uM measured after 24 hrs by Western blot analysis relative to control", "assay_type": "cell-based"}, "[30]": {"biological_target": "GTPase KRas (Homo sapiens) (UniProt P01116)", "assay": "Inhibition of KRAS in human MCF7 cells assessed as reduction in phosphorylated ERK1/2 at Thr185/Tyr187 residues protein level at 35 uM measured after 24 hrs by Western blot analysis relative to control", "assay_type": "cell-based"}, "[31]": {"biological_target": "GTPase KRas (Homo sapiens) (UniProt P01116)", "assay": "Inhibition of KRAS in human MCF7 cells assessed as reduction in phosphorylated RAF-1 E1 protein level at 25 uM measured after 24 hrs by Western blot analysis relative to control", "assay_type": "cell-based"}, "[32]": {"biological_target": "GTPase KRas (Homo sapiens) (UniProt P01116)", "assay": "Inhibition of KRAS in human MCF7 cells assessed as reduction in MEK1/2 9G3 protein level at 15 uM measured after 24 hrs by Western blot analysis relative to control", "assay_type": "cell-based"}}, "data": [{"smiles": "O=P(Oc1ccccc1)(Oc1ccccc1)OC1C2OC3(c4ccccc4)OC(C2O)C(O)C1O3", "note": "(stereo not drawn)", "values": [{"measurement": "fold change (FC)", "setting": "[1]", "value": 0.87}, {"measurement": "Activity", "setting": "MDA-MB-231 [2]", "value": 59.93, "unit": "%"}, {"measurement": "Activity", "setting": "MDA-MB-231 [3]", "value": 0.07, "unit": "%"}, {"measurement": "Activity", "setting": "MDA-MB-231 [4]", "value": 0.39, "unit": "%"}, {"measurement": "Activity", "setting": "MCF7 [5]", "value": 61.44, "unit": "%"}, {"measurement": "fold change (FC)", "setting": "[6]", "value": 1.02}, {"measurement": "fold change (FC)", "setting": "[7]", "value": 0.46}, {"measurement": "fold change (FC)", "setting": "[8]", "value": 1.25}, {"measurement": "fold change (FC)", "setting": "[9]", "value": 1.14}, {"measurement": "Activity", "setting": "MDA-MB-231 [10]", "value": 0.39, "unit": "%"}, {"measurement": "Activity", "setting": "MDA-MB-231 [11]", "value": "Dose-dependent effect"}, {"measurement": "IC50", "setting": "MDA-MB-231 [11]; MDA-MB-231, 48 h", "value": 22.4, "unit": "µM"}, {"measurement": "Activity", "setting": "MDA-MB-231 [12]", "value": 91.93, "unit": "%"}, {"measurement": "Activity", "setting": "MDA-MB-231 [13]", "value": 21.02, "unit": "%"}, {"measurement": "Activity", "setting": "MCF7 [14]", "value": 0.37, "unit": "%"}, {"measurement": "fold change (FC)", "setting": "[15]", "value": 0.99}, {"measurement": "fold change (FC)", "setting": "[16]", "value": 0.53}, {"measurement": "Activity", "setting": "MDA-MB-231 [17]", "value": 16.64, "unit": "%"}, {"measurement": "fold change (FC)", "setting": "[18]", "value": 1.24}, {"measurement": "fold change (FC)", "setting": "[19]", "value": 0.42}, {"measurement": "fold change (FC)", "setting": "[20]", "value": 0.93}, {"measurement": "fold change (FC)", "setting": "[21]", "value": 1.05}, {"measurement": "fold change (FC)", "setting": "[22]", "value": 1.18}, {"measurement": "fold change (FC)", "setting": "[23]", "value": 0.91}, {"measurement": "inhibition", "setting": "[24]", "value": "Dose-dependent effect"}, {"measurement": "fold change (FC)", "setting": "[25]", "value": 1.16}, {"measurement": "Activity", "setting": "MCF7 [26]", "value": 66.88, "unit": "%"}, {"measurement": "fold change (FC)", "setting": "[27]", "value": 0.91}, {"measurement": "fold change (FC)", "setting": "[28]", "value": 0.61}, {"measurement": "fold change (FC)", "setting": "[29]", "value": 1.15}, {"measurement": "fold change (FC)", "setting": "[30]", "value": 0.35}, {"measurement": "fold change (FC)", "setting": "[31]", "value": 0.99}, {"measurement": "fold change (FC)", "setting": "[32]", "value": 0.97}]}]}
